Data on two compounds can be found in patent publication US12383530B2, “Pharmaceutical combination for the treatment of melanoma” (Piramal Enterprises Limited, priority 2013, dated 2025).

The test system of assay [1] is G361 melanoma cells. In words: Analysis of cell cycle distribution using flow cytometry, G361. Format: cell-based, human. To be noted: 5 days; for apoptosis (sub G1 phase): 1 μM of each compound, alone or together. How it is done:
The G361/SK-MEL3 melanoma cells were seeded in […] tissue culture flasks. After 24 h, G361 cells were treated with: i) compound A (1 μM); ii) vemurafenib (1 μM); and iii) compound A (1 μM) and vemurafenib (1 μM) together for 5 days.
(§1) The control cells were left untreated for 5 days. Both detached and adherent cells were harvested at the end of 5 days. The cells were washed twice with approximately 5 mL of phosphate buffered saline (PBS) with centrifugation at 1000 rpm for 10 min. The cells were resuspended in 500 μL of PBS and fixed in 500 μL ice-cold 70% ethanol. The fixed cells were incubated at room temperature for 30 min, spun at 1000 rpm for 10 min. To the cell pellet, 1 mL of chilled 70% ethanol was added and stored below 0° C. till further analysis. The cells were washed twice with PBS to remove fixative and re-suspended in 250 μL PBS. To this 12.5 μL of propidium iodide (1 mg/ml in PBS) and 12.5 μL Rnase A (1 mg/mL) was added. After incubation at 37° C. for 30 min, the cells were analyzed using flow cytometry.
(§2) A flow cytometer (Becton Dickinson FACS Calibur, USA) was used for these studies in accordance with the manufacturer's recommendations. The argon ion laser set at 488 nm was used as an excitation source. Cells with DNA content between 2n and 4n were designated as being in G1, S and G2/M phases of the cell cycle, as defined by the level of red fluorescence. […] The number of cells in each cell cycle compartment was expressed as a percentage of the total number of cells present.

Another assay deals with SK-MEL3 melanoma cells. In words: Analysis of cell cycle distribution using flow cytometry, SK-MEL3. Format: cell-based. To be noted: 5 days. The protocol: In case of SK-MEL3 melanoma cells, the cells were treated with: i) compound A (1 μM); ii) vemurafenib (10 μM); and iii) compound A (1 μM) and vemurafenib (10 μM) together for 5 days.
as §1, §2

For assay [2], the system named is G361 melanoma cells. In words: Annexin V-FITC staining for detection of early apoptosis. In kind it is cell-based, human. To be noted: 1 μM of each compound, alone or together, 24 h. The protocol: Annexin V-FITC is a sensitive probe for identifying apoptotic cells. During early apoptosis, the membrane phospholipid phosphatidyl serine (PS) is translocated from the inner to the outer leaflet of the plasma membrane, thereby exposing PS to the external cellular environment. Annexin V is a 35-36 kDa Calcium dependent phospholipid binding protein that has a high affinity for PS and binds to cells with exposed PS.
The melanoma cells G361 was seeded in […] tissue culture flasks. After 24 h, cells were treated with: i) compound A (1 μM); ii) vemurafenib (1 μM); and iii) compound A (1 μM) and vemurafenib (1 μM) together; for 24 h. The control cells were left untreated for 24 h. Medium containing floating cells were collected and pooled with the adherent cells after harvesting with trypsin at the different time points. The cells were washed twice with cold PBS with centrifugation at 1000 rpm for 10 minutes. The cell pellet was resuspended in 1× binding buffer (10 mm HEPES pH 7.4, 140 mM NaCl, 2.5 mM CaCl2) at a concentration of 1×10^6 cells/mL. 100 μL of the solution (1×10^5 cells) were stained with Annexin V-FITC and propidium iodide. The cells were incubated for 15 min at room temperature (25-30° C.) in the dark and the sample was analysed by flow cytometry.

Assay [3] deals with A375 (BRAFV600E mutated) cell line. In words: CCK8 live cell dehydrogenase cytotoxicity assay, A375 (96-well). In kind it is cell-based, human. As to conditions: 48 h. The protocol:
(§3) The cells were then treated with the respective test compounds.
(§4) At the end of the incubation periods, the plates were assayed using the CCK8 cytotoxicity assay protocol. The synergism was determined by the combination index (CI) calculated using the Compusyn software by Chou and Talalay (4). CI<1 is synergistic, CI=1 is additive and CI>1 is antagonistic.
(§5) Statistical analysis was performed using the Student t test, and a p value of <0.05 was considered significant. Data are expressed as the mean±standard error of the mean (SEM). The mean value was obtained from at least two independent experiments, each performed in triplicate.
(§6) Logarithmically growing cells were plated at a density of 3×10^3 cells/well and allowed to recover for 16-18 h. […] After 48 h, cell toxicity was determined by CCK-8 reagent (Dojindo Molecular Technologies, Inc, Maryland, and Japan). In accordance with the manufacturer's instructions, 5 μL/well CCK-8 reagent was added and plates were incubated for 2 h. The toxicity was determined by measuring the absorbance on Tecan Sapphire multi-fluorescence micro-plate reader at a wavelength of 450 nm corrected to 650 nm and normalized to controls. All the experiments were performed twice in triplicates.

Assay [4] deals with G361 (BRAFV600E mutated) cell line. The assay can be described thus: CCK8 live cell dehydrogenase cytotoxicity assay, G361 (96-well). Format: cell-based, human. To be noted: 48 h. The protocol:
as §3, §4, §5, §6

Assay [5] concerns MDAMB-435S (BRAFV600E mutated) cell line. The assay can be described thus: CCK8 live cell dehydrogenase cytotoxicity assay, MDAMB-435S (96-well). Format: cell-based, human. To be noted: 48 h. How it is done:
as §3, §4, §5, §6

For assay [6], the system named is A375 (BRAFV600E mutated) cell line. In words: CCK8 live cell dehydrogenase assay, A375 (384-well, Example 2). Format: cell-based, human. To be noted: A375 parental, single agent, 48 h.
Experimental: Logarithmically growing human BRAFV600E mutated melanoma cells were seeded at a density of 1500 cells/well in 30 μL of Dulbecco's Modified Eagle medium medium (DMEM) in 384-well plate (Corning, USA) using Tecan automated platform (FreedomEvo Liquid handling system) and incubated for about 12-16 h to allow the cells to adhere. […] The controls used were only cells or cells along with the vehicle (DMSO).
The plates were incubated for 48 h in humidified 5% CO2 incubator at 37°±1° C. Post incubation the plates were assayed using the CCK8 reagent (Dojindo Molecular Technologies, Inc, Maryland, and Japan). In accordance with the manufacturer's instructions, 3 μL CCK-8 reagent was added in each well of the 384 well plate and plates were incubated for 2 h. The toxicity was determined by measuring the absorbance on Tecan Sapphire multi-fluorescence micro-plate reader at a wavelength of 450 nm normalized to controls. All the experiments were performed in quadruplets.
The test system of assay [7] is A375R cell line (vemurafenib resistant). The assay can be described thus: CCK8 live cell dehydrogenase assay, A375R (384-well, Example 2). In kind it is cell-based, human. To be noted: single agent, 48 h. The protocol:
The cytotoxicity studies using all the test compounds as single agents and in combinations were carried out using the CCK8 live cell dehydrogenase assay.
Logarithmically growing human BRAFV600E mutated melanoma cells were seeded at a density of 1500 cells/well in 30 μL of Dulbecco's Modified Eagle medium medium (DMEM) in 384-well plate (Corning, USA) using Tecan automated platform (FreedomEvo Liquid handling system) and incubated for about 12-16 h to allow the cells to adhere. The cells were then treated for 48 h with different doses of compound A and anticancer agents (vemurafenib or dabrafenib or trametinib) as monotherapy (used singly) and in combinations. Studies using different dosages were carried out for each combination (e.g. combination of compound A and vemurafenib). […]
The plates were incubated for 48 h in humidified 5% CO2 incubator at 37°±1° C. […] The toxicity was determined by measuring the absorbance on Tecan Sapphire multi-fluorescence micro-plate reader at a wavelength of 450 nm normalized to controls. […]
The potency of the combination was quantified using Calcusyn software (Biosoft, Ferguson, MO, USA) which is based on the Chou Talalay method that calculates a combination index (CI) with CI values less than 1 indicating synergy.

Usually IC50 stands for the concentration that inhibits the measured activity by half. A word on the inhibition: it is the share of the control response that was lost under treatment.

Each structure is given as a SMILES string. “And” between values parts separate entries of the source, which are not always exact repeats. Equal entries are not always repeated.

For `CN1CC[C@@H](c2c(O)cc(O)c3c(=O)cc(-c4ccc(C(F)(F)F)cc4Cl)oc23)[C@@H]1CO.Cl` (relative stereo) [compound A, (+)-trans-2-(2-chloro-4-trifluoromethylphenyl)-5,7-dihydroxy-8-(2-hydroxy-methyl-1-methylpyrrolidin-3-yl)-chromen-4-one Hydrochloride], the “apoptosis (sub G1 phase)” value in the assay on G361 melanoma cells [1] is on record as 9.48%; in the assay on SK-MEL3 melanoma cells (compound A 1 μM alone), 19.63%. Moreover, the “cells in early apoptosis (annexin stained cells)” value in the assay with G361 melanoma cells [2] amounted to 8%. The inhibition of cells in assay [3] (A375, compound A 3 μM alone) is on record as 46%; in assay [4] (G361, compound A 0.3 μM alone), 2%; in assay [5] (MDA-MB435S, compound A 1 μM alone), 32%. In addition, the IC50 in assay [5] (MDAMB435S, cytotoxicity, Hydrochloride, read-out: IC50 in μM (±SEM)) is 0.85 µM and 0.7 µM. Further, the “sensitivity of the cell line (dose response curve)” value in assay [6] and in assay [7] was “equally sensitive” in each case.

With `CCCS(=O)(=O)Nc1ccc(F)c(C(=O)c2c[nH]c3ncc(-c4ccc(Cl)cc4)cc23)c1F` [vemurafenib, reference compound], the “apoptosis (sub G1 phase)” value with G361 melanoma cells [1] stood at 2.3%; with SK-MEL3 melanoma cells (vemurafenib 10 μM alone), 15.12%. In addition, the G1 arrest in the assay with G361 melanoma cells [1] (vemurafenib 1 μM, control cells 72.36%) was 91.94%; in the assay with SK-MEL3 melanoma cells (vemurafenib 10 μM, control cells 67.38%), 76.78%. Also, the “cells in early apoptosis (annexin stained cells)” value with G361 melanoma cells [2] is given as 20%. For the same compound, the inhibition at 1 µM stood at 23% in assay [3] (Homo sapiens, A-375, A375, vemurafenib 1 μM alone, read-out: inhibition of cells); 30% in assay [4] (Homo sapiens, G-361, G361, vemurafenib 1 μM alone, read-out: inhibition of cells); 31% in assay [5] (Homo sapiens, MDA-MB-435S, MDA-MB435S, vemurafenib 1 μM alone, read-out: inhibition of cells).
